From patent US8853246B2 (Dow AgroSciences LLC, priority 2009, dated 2014)

Assays:
[1] = system: Sweetpotato Whitefly-Crawler (Bemisia Tabaci); assay: Insecticidal test for sweetpotato whitefly-crawler in foliar spray assay (col. BEMITA); assay type: in vivo; conditions: sweetpotato whitefly-crawler; for pest or weed control at 200 ppm: Bemisia tabaci, read-out: BEMITA 200 ppm (Corrected % Control, rating)
How it was run: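 Cotton plants (one 3-5 cm true leaf) infested with whitefly eggs (100-300/plant), held 5-6 days at 82° F, 50% RH until crawlers developed. Sprayed to runoff at 200 ppm (acetone stock diluted in 0.025% Tween 20), four plants per treatment. Live nymphs counted after 8-9 days; % control by Abbott's correction versus solvent check.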

[2] = system: Green Peach Aphid (Myzus Persicae); assay: Insecticidal test for green peach aphid in foliar spray assay (col. MYZUPE); assay type: in vivo; conditions: green peach aphid; for pest or weed control at 200 ppm: Myzus persicae, 72 h, read-out: MYZUPE 200 ppm (Corrected % Control, rating)
How it was run: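 Cabbage seedlings with 2-3 true leaves, infested with 20-50 wingless adult and nymph aphids one day earlier, sprayed to runoff at 200 ppm (acetone/methanol stock diluted in 0.025% Tween 20), four pots per treatment. After 3 days at ~25 °C, 40% RH, live aphids counted; corrected % control versus solvent-sprayed plants.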

CN(C(=O)C(C)(C)C[S+](C)[O-])c1sc(-c2cccnc2)nc1Cl (stereo not drawn) [Compound 269]
pest or weed control at 200 ppm [1]: 80 to 100% | pest or weed control at 200 ppm [2]: 80 to 100%

CN(C(=O)CCS(C)(=O)=O)c1sc(-c2cncc(F)c2)nc1Cl [Compound 273]
pest or weed control at 200 ppm [1]: 80 to 100% | pest or weed control at 200 ppm [2]: 80 to 100%

CCN(C(=O)C(C)C)c1sc(-c2cncc(F)c2)nc1Cl [Compound 275]
pest or weed control at 200 ppm [1]: 80 to 100% | pest or weed control at 200 ppm [2]: 80 to 100%

Cc1nc(-c2cccnc2)sc1N(C)C(=O)CNC(=O)OC(C)(C)C [Compound 276]
pest or weed control at 200 ppm [1]: < 80% | pest or weed control at 200 ppm [2]: 80 to 100%

Cc1nc(-c2cccnc2)sc1N(C)C(=O)[C@H](Cc1ccccc1)NC(=O)OC(C)(C)C [Compound 280]
pest or weed control at 200 ppm [1]: < 80% | pest or weed control at 200 ppm [2]: < 80%

CSCC[C@H](NC(=O)OC(C)(C)C)C(=O)N(C)c1sc(-c2cccnc2)nc1C [Compound 281]
pest or weed control at 200 ppm [1]: < 80% | pest or weed control at 200 ppm [2]: < 80%

Cc1nc(-c2cccnc2)sc1N(C)C(=O)C(C)NC(=O)OC(C)(C)C (stereo not drawn) [Compound 282]
pest or weed control at 200 ppm [1]: 80 to 100% | pest or weed control at 200 ppm [2]: 80 to 100%

Cc1nc(-c2cccnc2)sc1N(C)C(=O)C(CC(C)C)NC(=O)OC(C)(C)C (stereo not drawn) [Compound 283]
pest or weed control at 200 ppm [1]: < 80% | pest or weed control at 200 ppm [2]: < 80%

CCCN(C(=O)OC(C)(C)C)c1sc(-c2cccnc2)nc1C [Compound 284]
pest or weed control at 200 ppm [1]: 80 to 100% | pest or weed control at 200 ppm [2]: 80 to 100%

Cc1nc(-c2cncc(F)c2)sc1N(C)C(=O)CC(C)[S+](C)[O-] (stereo not drawn) [Compound 285]
pest or weed control at 200 ppm [1]: 80 to 100% | pest or weed control at 200 ppm [2]: 80 to 100%

CCCN(C(=O)C(C)CSC)c1sc(-c2cccnc2)nc1C (stereo not drawn) [Compound 286]
pest or weed control at 200 ppm [1]: 80 to 100% | pest or weed control at 200 ppm [2]: 80 to 100%

Cc1nc(-c2cccnc2)sc1N(C)C(=O)[C@H](CSCc1ccccc1)NC(=O)OC(C)(C)C [Compound 290]
pest or weed control at 200 ppm [1]: < 80% | pest or weed control at 200 ppm [2]: < 80%

Cc1nc(-c2cccnc2)sc1N(C)C(=O)C(CCCCNC(=O)OCc1ccccc1)NC(=O)OC(C)(C)C (stereo not drawn) [Compound 291]
pest or weed control at 200 ppm [1]: < 80% | pest or weed control at 200 ppm [2]: < 80%

Cc1nc(-c2cccnc2)sc1N(C)C(=O)[C@@H]1CCCN1C(=O)OC(C)(C)C [Compound 292]
pest or weed control at 200 ppm [1]: 80 to 100% | pest or weed control at 200 ppm [2]: < 80%

Cc1nc(-c2cccnc2)sc1N(C)C(=O)C(NC(=O)OC(C)(C)C)C(C)OCc1ccccc1 (stereo not drawn) [Compound 293]
pest or weed control at 200 ppm [1]: < 80% | pest or weed control at 200 ppm [2]: 80 to 100%

Cc1nc(-c2cccnc2)sc1N(C)C(=O)C(C)N(C)C(=O)OC(C)(C)C (stereo not drawn) [Compound 294]
pest or weed control at 200 ppm [1]: < 80% | pest or weed control at 200 ppm [2]: < 80%

CNC(C)C(=O)N(C)c1sc(-c2cccnc2)nc1C (stereo not drawn) [Compound 295]
pest or weed control at 200 ppm [1]: 80 to 100% | pest or weed control at 200 ppm [2]: < 80%

CSCC(C)C(=O)Nc1sc(-c2cncc(F)c2)nc1Br (stereo not drawn) [Compound 299]
pest or weed control at 200 ppm [1]: 80 to 100% | pest or weed control at 200 ppm [2]: 80 to 100%

CCN(C(=O)CC(C)SC)c1sc(-c2cncc(F)c2)nc1C (stereo not drawn) [Compound 300]
pest or weed control at 200 ppm [1]: < 80% | pest or weed control at 200 ppm [2]: 80 to 100%

Cc1nc(-c2cccnc2)sc1N(CCF)C(=O)OC(C)(C)C [Compound 301]
pest or weed control at 200 ppm [1]: 80 to 100% | pest or weed control at 200 ppm [2]: 80 to 100%

COCC(C)(C)OC(=O)N(C)c1sc(-c2cccnc2)nc1C [Compound 302]
pest or weed control at 200 ppm [1]: 80 to 100% | pest or weed control at 200 ppm [2]: < 80%

CCN(C(=O)OC(C)(C)C)c1sc(-c2cncc(F)c2)nc1Br [Compound 303]
pest or weed control at 200 ppm [1]: 80 to 100% | pest or weed control at 200 ppm [2]: < 80%

CCN(C(=O)OC(C)(C)C)c1sc(-c2cccnc2)nc1Cl [Compound 304, (4-chloro-2-pyridin-3-yl-thiazol-5-yl)-ethyl-carbamic Acid Tert-Butyl Ester]
pest or weed control at 200 ppm [1]: 80 to 100% | pest or weed control at 200 ppm [2]: 80 to 100%

CC[C@H](NC(=O)OC(C)(C)C)C(=O)N(C)c1sc(-c2cccnc2)nc1C [Compound 312]
pest or weed control at 200 ppm [1]: 80 to 100% | pest or weed control at 200 ppm [2]: 80 to 100%

CCN(C(=O)CCSC)c1sc(-c2cccnc2)nc1Cl [Compound 313, N-(4-chloro-2-pyridin-3-yl-thiazol-5-yl)-N-ethyl-3-methylsulfanyl-propionamide]
pest or weed control at 200 ppm [1]: 80 to 100% | pest or weed control at 200 ppm [2]: 80 to 100%

CCN(C(=O)CC[S+](C)[O-])c1sc(-c2cccnc2)nc1Cl (stereo not drawn) [Compound 314]
pest or weed control at 200 ppm [1]: 80 to 100% | pest or weed control at 200 ppm [2]: 80 to 100%

CCN(C(=O)CCS(C)(=O)=O)c1sc(-c2cccnc2)nc1Cl [Compound 315]
pest or weed control at 200 ppm [1]: 80 to 100% | pest or weed control at 200 ppm [2]: 80 to 100%

CCSCCC(=O)N(CC)c1sc(-c2cncc(F)c2)nc1C [Compound 319]
pest or weed control at 200 ppm [1]: 80 to 100% | pest or weed control at 200 ppm [2]: 80 to 100%

CCN(C(=O)CCSCc1ccccc1)c1sc(-c2cccnc2)nc1C [Compound 320]
pest or weed control at 200 ppm [1]: < 80% | pest or weed control at 200 ppm [2]: 80 to 100%

CCN(C(=O)CCSc1ccccc1)c1sc(-c2cccnc2)nc1C [Compound 321]
pest or weed control at 200 ppm [1]: < 80% | pest or weed control at 200 ppm [2]: 80 to 100%

CCSCCC(=O)N(CC)c1sc(-c2cccnc2)nc1C [Compound 322]
pest or weed control at 200 ppm [1]: < 80% | pest or weed control at 200 ppm [2]: 80 to 100%

CCN(C(=O)CCSC(C)C)c1sc(-c2cccnc2)nc1C [Compound 323]
pest or weed control at 200 ppm [1]: < 80% | pest or weed control at 200 ppm [2]: 80 to 100%

CCN(C(=O)CC(C)SC)c1sc(-c2cccnc2)nc1Cl (stereo not drawn) [Compound 324]
pest or weed control at 200 ppm [1]: < 80% | pest or weed control at 200 ppm [2]: 80 to 100%

Cc1nc(-c2cccnc2)sc1NC(=O)C1=CC(=O)CC(C)(C)O1 [Compound 326]
pest or weed control at 200 ppm [1]: < 80% | pest or weed control at 200 ppm [2]: < 80%

Cc1nc(-c2cccnc2)sc1N(C)C(=O)C1=CC(=O)CC(C)(C)O1 [Compound 327]
pest or weed control at 200 ppm [1]: < 80% | pest or weed control at 200 ppm [2]: < 80%

CN(C(=O)C1=CC(=O)CC(C)(C)O1)c1sc(-c2cccnc2)nc1Cl [Compound 328]
pest or weed control at 200 ppm [1]: < 80% | pest or weed control at 200 ppm [2]: < 80%

CSCC(Cc1ccccc1)C(=O)Nc1sc(-c2cccnc2)nc1C (stereo not drawn) [Compound 329]
pest or weed control at 200 ppm [1]: < 80% | pest or weed control at 200 ppm [2]: < 80%

CSCC(Cc1ccccc1)C(=O)N(C)c1sc(-c2cccnc2)nc1C (stereo not drawn) [Compound 330]
pest or weed control at 200 ppm [1]: < 80% | pest or weed control at 200 ppm [2]: < 80%

CSCC(Cc1ccccc1)C(=O)N(C)c1sc(-c2cccnc2)nc1Cl (stereo not drawn) [Compound 331]
pest or weed control at 200 ppm [1]: 80 to 100% | pest or weed control at 200 ppm [2]: < 80%

Cc1nc(C)n(CC(C)C(=O)Nc2sc(-c3cccnc3)nc2C)n1 (stereo not drawn) [Compound 332]
pest or weed control at 200 ppm [1]: < 80% | pest or weed control at 200 ppm [2]: 80 to 100%

Cc1nc(C)n(CC(C)C(=O)N(C)c2sc(-c3cccnc3)nc2Cl)n1 (stereo not drawn) [Compound 333]
BEMITA 200 ppm (Corrected % Control, rating) [1]: B (Less than 80) | MYZUPE 200 ppm (Corrected % Control, rating) [2]: A (80-100)

CC(=O)OC(C)C(=O)Nc1sc(-c2cccnc2)nc1C (stereo not drawn) [Compound 334]
pest or weed control at 200 ppm [1]: < 80% | pest or weed control at 200 ppm [2]: 80 to 100%

CC(=O)OC(C)C(=O)N(C)c1sc(-c2cccnc2)nc1C (stereo not drawn) [Compound 335]
BEMITA 200 ppm (Corrected % Control, rating) [1]: A (80-100) | MYZUPE 200 ppm (Corrected % Control, rating) [2]: A (80-100)

CC(=O)OC(C)C(=O)N(C)c1sc(-c2cccnc2)nc1Cl (stereo not drawn) [Compound 336]
BEMITA 200 ppm (Corrected % Control, rating) [1]: A (80-100) | MYZUPE 200 ppm (Corrected % Control, rating) [2]: A (80-100)

Cc1nc(-c2cccnc2)sc1NC(=O)C1CCN1C(=O)OC(C)(C)C (stereo not drawn) [Compound 337]
pest or weed control at 200 ppm [1]: 80 to 100% | pest or weed control at 200 ppm [2]: < 80%

CN(C(=O)C1CCN1C(=O)OC(C)(C)C)c1sc(-c2cccnc2)nc1Cl (stereo not drawn) [Compound 339]
BEMITA 200 ppm (Corrected % Control, rating) [1]: A (80-100) | MYZUPE 200 ppm (Corrected % Control, rating) [2]: B (Less than 80)

Cc1nc(-c2cccnc2)sc1NC(=O)c1cscn1 [Compound 340]
pest or weed control at 200 ppm [1]: < 80% | pest or weed control at 200 ppm [2]: 80 to 100%

CN(C(=O)c1cscn1)c1sc(-c2cccnc2)nc1Cl [Compound 341]
BEMITA 200 ppm (Corrected % Control, rating) [1]: B (Less than 80) | MYZUPE 200 ppm (Corrected % Control, rating) [2]: B (Less than 80)

Cc1nc(-c2cccnc2)sc1NC(=O)c1cnco1 [Compound 342]
pest or weed control at 200 ppm [1]: < 80% | pest or weed control at 200 ppm [2]: < 80%

Cc1nc(-c2cccnc2)sc1N(C)C(=O)c1cnco1 [Compound 343]
BEMITA 200 ppm (Corrected % Control, rating) [1]: B (Less than 80) | MYZUPE 200 ppm (Corrected % Control, rating) [2]: A (80-100)

Cc1nc(-c2cccnc2)sc1NC(=O)c1ccns1 [Compound 344]
pest or weed control at 200 ppm [1]: < 80% | pest or weed control at 200 ppm [2]: < 80%

Cc1nc(-c2cccnc2)sc1N(C)C(=O)c1ccns1 [Compound 345]
BEMITA 200 ppm (Corrected % Control, rating) [1]: A (80-100) | MYZUPE 200 ppm (Corrected % Control, rating) [2]: A (80-100)

CN(C(=O)c1ccns1)c1sc(-c2cccnc2)nc1Cl [Compound 346]
BEMITA 200 ppm (Corrected % Control, rating) [1]: A (80-100) | MYZUPE 200 ppm (Corrected % Control, rating) [2]: B (Less than 80)

CC(=O)c1ccc(C(=O)Nc2sc(-c3cccnc3)nc2C)s1 [Compound 347]
pest or weed control at 200 ppm [1]: < 80% | pest or weed control at 200 ppm [2]: < 80%

CCN(C(=O)C(C)C[S+](C)[O-])c1sc(-c2cccnc2)nc1Cl (stereo not drawn) [Compound 348]
pest or weed control at 200 ppm [1]: 80 to 100% | pest or weed control at 200 ppm [2]: 80 to 100%

CC(=O)c1ccc(C(=O)N(C)c2sc(-c3cccnc3)nc2C)s1 [Compound 350]
pest or weed control at 200 ppm [1]: < 80% | pest or weed control at 200 ppm [2]: < 80%

CC(=O)c1ccc(C(=O)N(C)c2sc(-c3cccnc3)nc2Cl)s1 [Compound 351]
pest or weed control at 200 ppm [1]: < 80% | pest or weed control at 200 ppm [2]: < 80%
